According to BindingDB's records for doi:10.1016/j.bmcl.2013.01.049 (Dongguk University-Seoul, 2013):

Molecular target: T1, Receptor-type tyrosine-protein kinase FLT3 (Homo sapiens, UniProt P36888)
T1 sequence (P36888 whole entry): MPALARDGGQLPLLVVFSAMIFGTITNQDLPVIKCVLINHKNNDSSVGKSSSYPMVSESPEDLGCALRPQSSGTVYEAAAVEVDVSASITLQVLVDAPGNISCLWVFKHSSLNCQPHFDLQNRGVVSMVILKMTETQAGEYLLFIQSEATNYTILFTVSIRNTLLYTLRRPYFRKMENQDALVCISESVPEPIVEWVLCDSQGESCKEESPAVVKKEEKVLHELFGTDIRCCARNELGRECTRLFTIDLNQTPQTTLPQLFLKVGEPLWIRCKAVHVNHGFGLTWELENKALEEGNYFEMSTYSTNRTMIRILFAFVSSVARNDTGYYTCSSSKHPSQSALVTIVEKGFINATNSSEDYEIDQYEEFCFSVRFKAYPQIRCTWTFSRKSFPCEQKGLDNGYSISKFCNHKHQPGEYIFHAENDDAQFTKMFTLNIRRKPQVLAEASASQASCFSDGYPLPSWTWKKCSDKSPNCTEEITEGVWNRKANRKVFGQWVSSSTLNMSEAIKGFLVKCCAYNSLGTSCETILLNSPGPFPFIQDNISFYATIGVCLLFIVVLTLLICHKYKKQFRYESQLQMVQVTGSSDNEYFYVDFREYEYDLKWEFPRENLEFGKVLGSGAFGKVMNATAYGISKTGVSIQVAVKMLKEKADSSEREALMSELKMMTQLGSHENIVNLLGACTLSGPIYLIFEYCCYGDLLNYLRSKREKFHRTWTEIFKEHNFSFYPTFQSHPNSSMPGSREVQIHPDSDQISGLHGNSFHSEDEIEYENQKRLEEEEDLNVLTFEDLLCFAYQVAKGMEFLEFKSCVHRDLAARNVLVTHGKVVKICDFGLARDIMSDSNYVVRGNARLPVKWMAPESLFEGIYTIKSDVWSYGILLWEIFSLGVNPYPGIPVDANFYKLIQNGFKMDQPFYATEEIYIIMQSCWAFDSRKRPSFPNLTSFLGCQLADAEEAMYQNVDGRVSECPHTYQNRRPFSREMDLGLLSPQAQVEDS
Assay: Inhibition of recombinant FLT3 (unknown origin) by TR-FRET assay

Row | SMILES | IC50 [µM]
1 | O=c1cc(O)cc2oc(-c3ccc(O)c(O)c3)c(OC3O[C@H](CO)[C@@H](O)[C@H](O)[C@@H]3O)c(O)c1-2 (stereo partly drawn) | > 10
2 | O=c1cc(O)cc2oc(-c3ccc(O)c(O)c3)c(O[C@@H]3O[C@H](CO)[C@H](O)[C@H](O)[C@H]3O)c(O)c1-2 [2-(3,4-Dihydroxy-phenyl)-5,7-dihydroxy-3-((2S,4R,5R)-3,4,5-trihydroxy-6-hydroxymethyl-tetrahydro-pyran-2-yloxy)-chromen-4-one] | > 10
3 | O=c1cc(O)cc2oc(-c3ccc(O)c(O)c3)c(O[C@@H]3O[C@H](CO)[C@@H](O)[C@H](O)[C@H]3O)c(O)c1-2 [Quercetin 3-O-beta-D-glucoside] | > 10
